Read-outs that look alike come from different tables or passages of the source.
Assays:
[1] = Diclofenac Transdermal Spray finite-dose in vitro diffusion study (Example 6); type: in vitro ADME, human; details: 24 hr
Description: Finite-dose in vitro diffusion studies were undertaken dermatomed skin (Padgett Model B or S electric dermatome set at 500 μm) prepared from excised […], abdominal skin.
These experiments were conducted over 24 hours using flow-through systems with a 1-cm^2 administration area.
Following a 2-h equilibration of the skin with the receptor solution (RS) of phosphate-buffered saline (PBS) pH 7.4, the stratum corneum surface was dosed with a volume of 3.6 μL/cm^2 (unless otherwise indicated) of a test formulation using a positive displacement pipette. The formulation was spread evenly over the skin area using the pipette tip.
The Diclofenac Transdermal Spray formulations were as follows: — • 0.1-2.0% Diclofenac (DIC) diethylamine in Isopropyl alcohol (IPA) [no enhancer] • 0.1-2.0% DIC diethylamine, 5% Octyl Salicylate (OS) in IPA [OS alone] • 0.1-2.0% DIC diethylamine, 2.5% Polyethylene glycol 200 (PEG 200) in IPA [PEG 200 alone] • 0.1-2.0% DIC diethylamine, 5% OS, 2.5% PEG 200 in IPA [OS+PEG 200]
A commercially available Diclofenac gel (approximately 5 mg/cm2) was used as a control. The commercially available gel was applied using a solid cap to simulate the rubbing action required when using the product. Approximately 7 mg gel was applied to the circular surface of a black polypropylene cylindrical cap (Alltech catalogue #98105, diameter 11 mm). […]

[2] = type: in vitro ADME, human
Description: The receptor solutions (Phosphate Buffered Saline pH7.4) maintained sink conditions below the skin.
The formulations consisted of:— • Composition (Camp) 1 (Control): 1.35% Nestorone (NES), 0.35% Ethinylestradiol (EE), 5% Octyl Salicylate (OS) in Isopropyl Alcohol (IPA) • Comp 2: 1.35% NES, 0.35% EE, 5% OS, 5% Polyethylene glycol 400 (PEG400) in IPA • Comp 3: 1.35% NES, 0.35% EE, 0.5% Polyethylene glycol (PEG200) in IPA • Comp 4: 1.35% NES, 0.35% EE, 5% OS, 0.5% PEG200 in IPA • Comp 5: 1.35% NES, 0.35% EE, 1% PEG200 in IPA • Comp 6: 1.35% NES, 0.35% EE, 5% OS, 1% PEG200 in IPA • Comp 7: 1.35% NES, 0.35% EE, 2.5% PEG200 in IPA • Comp 8: 1.35% NES, 0.35% EE, 5% OS, 2.5% PEG200 in IPA • Comp 9: 1.35% NES, 0.35% EE, 5% PEG200 in IPA • Comp 10:1.35% NES, 0.35% EE, 5% OS, 5% PEG200 in IPA • Comp 11: 1.35% NES, 0.35% EE, 10% PEG200 in IPA • Camp 12: 1.35% NES, 0.35% EE, 5% OS, 10% PEG200 in IPA

[3] = Finite-dose in vitro diffusion study, Franz-type cells, 24 hours (Example 1); type: in vitro ADME, human; details: effect of PEG200 in combination with OS vs 5% OS comparison composition, 2.8% NETA, 0.55% E2, 3.6 μL/cm2
Description: These experiments were performed over 24 hours using Franz-type cells. Pre-cut skin membranes were mounted as a barrier between the halves of greased (high vacuum grease, BDH) horizontal Franz-type permeation cells in the middle of the receptor chamber of the cell with the stratum corneum facing the donor chamber. The area available for permeation was approximately 0.925 cm2. The receptor chambers of the permeation cells were filled with the receptor phase (Phosphate Buffered Saline pH 7.4) and capped. The permeation cells were immersed in a constant temperature water bath such that the receptor chambers were maintained at 35° C. Receptor chamber contents were continuously agitated by small PTFE-coated magnetic stirrer bars driven by submersible magnetic stirrers. The skin was allowed to equilibrate to temperature with receptor solution for 1 h in the water bath prior to dosing.
The formulations were applied to the skin at a dose of 3.6 μL/cm2. The applied formulation was spread over the skin area using an Eppendorf positive displacement pipette tip without breaking the skin membrane. […]

[4] = Finite-dose in vitro diffusion study, flow through diffusion cells, 15 μL/cm2 (Example 3); details: effect of PEG200 (0.5-2.5%) in combination with 5% OS, 2% TES, 2% PVP, 30% IPA in ethanol, 24 hr
Description: These experiments were performed over 24 hours using stainless steel, flow through diffusion cells based on those described previously (Cooper, E. R. J. Pharm. Sci. 1984, 73, 1153-1156) except that the cell was modified to increase the diffusion area to 1.0 cm2. The formulations were applied using a finite dose technique (Franz, T. J. Curr. Probl. Dermatol., 1978, 7, 58-68) to mimic clinical dosing conditions at an applied dose volume of 15 μL/cm2. […] The receptor solutions (0.002% w/v NaN3) maintained sink conditions below the skin.
The formulations consisted of:— • Comp 1: 2% Testosterone (TES), 5% Octyl Salicylate (OS), 2% polyvinyl pyrrolidine (PVP), 30% isopropyl alcohol (IPA) in ethanol (95%) • Comp 2: 2% TES, 5% OS, 2% PVP, 30% IPA, 0.5% polyethylene glycol 200 (PEG200) in ethanol (95%) • Comp 3: 2% TES, 5% OS, 2% PVP, 30% IPA, 1.0% PEG200 in ethanol (95%) • Comp 4: 2% TES, 5% OS, 2% PVP, 30% IPA, 2.5% PEG200 in ethanol (95%)

[5] = Finite-dose in vitro diffusion study, flow through diffusion cells, 3.6 μL/cm2 (Example 4); details: effect of PEG200 (1.0-2.5%) in combination with 5% OS, 5% TES in ethanol (95%), 24 hr
Description: These experiments were performed over 24 hours using stainless steel, flow through diffusion cells based on those described previously (Cooper, E. R. J. Pharm. Sci. 1984, 73, 1153-1156) except that the cell was modified to increase the diffusion area to 1.0 cm2. The formulations were applied using a finite dose technique (Franz, T. J. Curr. Probl. Dermatol., 1978, 7, 58-68) to mimic clinical dosing conditions at an applied dose volume of 3.6 μL/cm2. […] The receptor solutions (0.002% w/v NaN3) maintained sink conditions below the skin.

[6] = Estradiol Spray finite-dose in vitro permeation study (Example 7); type: in vitro ADME, human; details: 24 h
Description: Finite-dose in vitro permeation studies were undertaken using dermatomed skin (Padgett Model B or S electric dermatome set at 500 μm) prepared from excised […], abdominal skin.
These experiments were conducted over 24 hours (h) using flow-through systems with a 1-cm2 administration area. […] The receptor solution was maintained at a nominal flow rate of 0.5 mL/h by a peristaltic pump (Watson Marlow 520S Peristaltic Pump with 313A adaptor and 308MC 8 roller pump-head; Stauff Corporation, Australia). The cells were placed on a heater bar to keep the temperature of the skin at 32±1° C.
Following a 2-h equilibration of the skin with the receptor solution (RS; 0.002% sodium azide), the stratum corneum surface was dosed with 3.6 μL/cm^2 of an Estradiol Transdermal Spray formulation using a positive displacement pipette. The formulation was spread evenly over the skin area using the pipette tip.
The Estradiol transdermal spray formulations contained:— • Estradiol (E2)+Octyl Salicylate (OS) in Isopropyl Alcohol IPA • E2+OS+Polyethylene glycol (PEG200) in Isopropyl Alcohol IPA • E2+OS+Polyethylene glycol 400 (PEG400) in IPA

O=C(O)Cc1ccccc1Nc1c(Cl)cccc1Cl [DIC, Diclofenac]
permeation through human epidermis in vitro ([1]; effect of PEG200 in combination with OS, DIC diethylamine, 5% OS, 2.5% PEG 200 in IPA): significantly enhance
permeation through human epidermis in vitro ([1]; effect of PEG 400, either alone or in combination with OS): decrease

C#C[C@]1(O)CC[C@H]2[C@@H]3CCc4cc(O)ccc4[C@H]3CC[C@@]21C [Ethinylestradiol]
permeation through human epidermis in vitro [2]: inhibit

C=C1C[C@H]2[C@@H]3CCC4=CC(=O)CC[C@@H]4[C@H]3CC[C@]2(C)[C@@]1(OC(C)=O)C(C)=O [Nestorone]
permeation through human epidermis in vitro [2]: did not have a significant effect

C#C[C@]1(OC(C)=O)CC[C@H]2[C@@H]3CCC4=CC(=O)CC[C@@H]4[C@H]3CC[C@@]21C [Norethisterone Acetate]
permeation through human epidermis in vitro [3]: significantly enhance

C[C@]12CC[C@H]3[C@@H](CCC4=CC(=O)CC[C@@]43C)[C@@H]1CC[C@@H]2O [Testosterone]
permeation through human epidermis in vitro [4]: significantly enhance
permeation through human epidermis in vitro [5]: significantly enhance

C[C@]12CC[C@@H]3c4ccc(O)cc4CC[C@H]3[C@@H]1CC[C@@H]2O [estradiol, Estradiol]
permeation through human skin in vitro ([6]; effect of PEG200 combined with OS in IPA, 3.6 μL/cm^2): synergistically enhanced
permeation through human skin in vitro ([6]; effect of PEG400 alone and PEG400+OS compared with the control formulation): no significant effect
permeation through human epidermis in vitro [3]: significantly enhance
